Assay results taken from patent US20090124608A1, “CB2 Receptor Modulators In Neurodegenerative Diseases And Applications Of The Same” (priority 2006, published 2009).
“Also recorded” adds a separate entry of the source.

Experiments:
G93A-SOD1 mice [1] = details: administration after the onset of symptoms; Raman et al. 2004, Weydt et al. 2005; cited from earlier work
G93A-SOD1 mice [2] = assay: Survival of G93A mice, daily i.p. treatment initiated at symptom onset; format: in vivo, mouse; details: for survival interval (symptom onset to sacrifice): vehicle 23.7+/−1.7 days; for Survival Interval Ratio (SIR) / Total Life-Span Ratio (TLR): G93A mice, i.p. daily from onset
Source text: Hemizygous transgenic male mice with the G93A mutation of the human SOD1 gene (G1H/1) mutation (B6SJL-TgN (SOD1-G93A) 1 Gur) were obtained from Jackson Laboratories and were bred locally with female B6SJL mice (Jackson Laboratory), according to the protocol obtained from the vendor. To decrease the inherent variability in disease onset and survival with these mice, littermate transgenic males (rather than random males from several different litters) were selected to sire subsequent generations of mice.
Determination of symptom onset, randomization and drug treatment of G93A mice. Symptom onset was assessed by blinded observation of changes in hind limb gait; these changes are related to the mouse's inability to support its weight on its hind limbs. At onset, mice initially place their weight on the toes and then quickly fall to full foot placement (as opposed to healthy mice which walk and run on the hind toes); this “toe-to-heel” walking pattern produces an asymmetric gait between hind and fore limbs and a characteristic “wobbling” gait. Mouse groups were randomized based on symptom onset and alternately placed in control and treated groups, e.g., the first mouse to develop hind limb weakness was placed in the control group, the second was injected with test compound and placed in the treatment group, and so on. […] By definition, the onset administration paradigm employed was focused on what we term the “survival interval”—namely the time from onset to end-stage sacrifice.
Mice were sacrificed when any of the following criteria were met: (1) inability to right themselves within 30 seconds when placed on their sides; (2) inability to eat or drink, or move toward food and water placed in low-rimmed dishes on cage floor; (3) loss of more than 10% of total body weight in 24 hours; (4) gross loss of grooming behavior; or (5) labored breathing. Criteria for death were confirmed by a second investigator who is blinded to the group identity of each mouse. The age of symptom onset was subtracted from the age at death for each mouse, and a mean survival interval was calculated for each group. By calculating the ratio of the survival interval of treated groups to the survival interval of untreated littermate controls, a X-fold increase in survival was readily determined.
The effect of chronic administration of cannabinoids on the survival of G93A mice was next examined (FIG. 4). […] The number of days between symptom onset and animal sacrifice was measured (e.g., survival interval). In humans, this is analogous to the time between diagnosis of ALS and death, ranging from 2-5 years.

CB1 receptors [3] = details: Yao et al. 2006; read-out: affinity for CB1 receptors; cited from earlier work
CB2 receptors = CB2 receptors (Homo sapiens, UniProt P34972); details: Yao et al. 2006, cited from earlier work
CB2 receptors, sequence (P34972 whole entry): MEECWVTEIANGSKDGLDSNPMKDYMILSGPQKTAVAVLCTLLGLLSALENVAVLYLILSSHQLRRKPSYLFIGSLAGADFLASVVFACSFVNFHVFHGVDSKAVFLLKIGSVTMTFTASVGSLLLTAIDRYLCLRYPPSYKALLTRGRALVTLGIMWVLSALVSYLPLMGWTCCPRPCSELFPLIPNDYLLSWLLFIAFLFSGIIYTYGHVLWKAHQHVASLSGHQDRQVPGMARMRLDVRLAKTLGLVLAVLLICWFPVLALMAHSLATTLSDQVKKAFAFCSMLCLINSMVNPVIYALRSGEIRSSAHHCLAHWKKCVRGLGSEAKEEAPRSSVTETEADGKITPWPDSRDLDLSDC

G93A-SOD1 mice [4] = assay: Motor function test (clinging to perpendicular wire mesh screen for 60 seconds) in G93A mice; format: in vivo, mouse
Procedure: Beginning on the first day of observing symptoms, mice were tested for motor function biweekly until sacrifice. Motor function testing was initiated by gently placing animals on a horizontal wire mesh screen. The screen was slowly rotated to be perpendicular to the ground (90°). The duration that mice were able to hang onto the perpendicular wire mesh up to a maximum of 120 seconds was recorded. Because vehicle treated mice on average lost the ability to cling to the wire mesh for 60 seconds in the middle of their survival curve, this “all or none” response was utilized to compare motor function across all treatment groups. Kaplan-Meier time-to-event statistics were employed to analyze the data. The event was defined as the number of days after symptom onset that each individual animal was no longer able to cling to the wire mesh screen for 60 seconds.
Testing twice a week for the duration of the study provided a quantifiable decline during disease progression. Mice were placed on a horizontal wire mesh screen that was gently inverted to 90°. Kaplan-Meier time-to-event curves were used to analyze the data. The event was defined as the day each animal was no longer able to cling to the perpendicular screen for 60 seconds. […] The disparity between male and female motor function was paralleled by the interval between survival for the genders. Male mice survived an average of 39.6±2.0 (FIG. 6a) days past the onset of symptoms, while females lived 9 days longer than males (p<0.0018*, FIG. 6b). For males and females, loss of motor function preceded death by 20.5 (p<0.0002***) and 19.0 days (p<0.0028**), respectively.

cannabinoid receptors = assay: GTPγS binding in end stage spinal cord homogenates from G93A-SOD1 mice, separated by gender; format: biochemical, mouse; details: for 2-AG stimulated G-protein activation remaining on co-incubation with CB2 ligand: 2-AG 3 μM; for 2-AG stimulated G-protein activation remaining on co-incubation with CB2 ligand / HU-210 stimulated G-protein activation remaining on co-incubation with CB2 ligand: ligand 1 μM; for HU-210 stimulated G-protein activation remaining on co-incubation with CB2 ligand: HU-210 100 nM
Procedure: (§1) [^35S]GTPγS binding assays were performed as described previously (Prather et al. 2000a) in a buffer containing 20 mM Hepes, 100 mM NaCl, and 10 mM MgCl2 at pH 7.4. Each binding reaction contained 10 μg of spinal cord membrane protein, the presence or absence of cannabinoid ligands (see following), plus 0.1 nM [^35S]GTPγS (1250 Ci/mmol, Perkin Elmer Life and Analytical Sciences) and […] of GDP to suppress basal G-protein activation. Reactions were incubated for 2 hrs at 30 °C. Non-specific binding was defined by binding observed in the presence of 10 μM of non-radioactive GTPγS. The reaction was terminated by rapid vacuum filtration through glass fiber filters followed by two washes with ice-cold assay buffer. 4 mL of scintiverse® (Fisher Scientific) was added to the filters and radioactivity quantified by scintillation counting.
Harvested spinal cords from the vehicle treated control groups at the end-stage of their disease were separated by gender and used to conduct GTP7S binding experiments, which measure the capability of a ligand to promote or suppress G-protein activation.
It was next determined if the selective CB2 ligands antagonize G-protein activation produced by an endocannabinoid such as 2-AG as well.

CB1 and CB2 receptors = assay: [35S]GTPγS binding with selective agonists in mouse spinal cord membranes; format: biochemical; details: data not shown
Procedure: as §1
We initially attempted to compare CB 1 and CB2 receptor activation of G-proteins between WT-OE and G93A spinal cord membranes by conducting [^35S]GTPγS binding assays in the presence of selective agonists.

[5] = Water solubility and dissolution in vehicles
CB1/CB2 receptors [6] = assay: [35S]GTPγS binding, selective antagonism of HU-210, G93A spinal cord membranes; format: biochemical, mouse; details: antagonist 3 μM
CB1 receptors [7] = molecular target: T1, CB1 receptors (Mus musculus, UniProt P47746); assay: Antagonism of HU-210 G-protein activation in mouse cortex membranes; format: biochemical; details: cortical membranes, HU-210 100 nM
T1 construct: employing membranes prepared from mouse cortex as a relatively pure source of CB1 receptors; from tissue; host or cells: mouse cortex
T1 sequence (P47746 whole entry): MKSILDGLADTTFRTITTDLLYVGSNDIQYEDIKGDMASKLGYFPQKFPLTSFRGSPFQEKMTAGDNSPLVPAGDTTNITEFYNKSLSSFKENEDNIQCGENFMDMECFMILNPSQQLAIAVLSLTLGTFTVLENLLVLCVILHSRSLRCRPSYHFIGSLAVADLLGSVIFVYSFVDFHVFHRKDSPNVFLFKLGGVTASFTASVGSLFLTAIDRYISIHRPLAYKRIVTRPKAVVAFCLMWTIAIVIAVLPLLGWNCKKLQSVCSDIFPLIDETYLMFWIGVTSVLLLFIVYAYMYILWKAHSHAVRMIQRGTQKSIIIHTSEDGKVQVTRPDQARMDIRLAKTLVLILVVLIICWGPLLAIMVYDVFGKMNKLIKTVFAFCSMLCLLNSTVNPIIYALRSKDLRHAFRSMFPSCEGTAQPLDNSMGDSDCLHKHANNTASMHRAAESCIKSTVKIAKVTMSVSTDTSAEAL
Source text: This was accomplished by antagonism experiments employing membranes prepared from mouse cortex as a relatively pure source of CB1 receptors.

CB1/CB2 receptors [8] = assay: [35S]GTPγS binding, selective antagonism of HU-210, WT-OE spinal cord membranes; format: biochemical, mouse; details: antagonist 3 μM
[9] = daily injections initiated at symptom onset
[10] = G93A spinal cord membranes, HU-210 100 nM
[11] = WT-OE spinal cord membranes, HU-210 100 nM

CCCCCc1cc(O)c2c(c1)OC(C)(C)[C@@H]1CCC(C)=C[C@@H]21 [Δ^9-THC, Δ^9-Tetrahydrocannabinol]
delaying motor impairment and prolonging survival in G93A mice (G93A-SOD1 mice [1]): minimally successful

CN1CCCCC1Cn1cc(C(=O)c2cc([N+](=O)[O-])ccc2I)c2ccccc21 (racemic) [AM-1241, (R,S)-(+)-(2-Iodo-5-nitrobenzoyl)-[1-(1-methyl-piperidin-2-ylmethyl-1H-indole-3-yl]methanone]
increase in survival interval versus vehicle (G93A-SOD1 mice [2]; 0.3 mg/kg daily i.p.): 9.7 days
survival interval (symptom onset to sacrifice) (G93A-SOD1 mice [2]; 0.3 mg/kg daily i.p.): 33.4 ± 2.2 days
increase in survival interval versus vehicle (G93A-SOD1 mice [2]; 3 mg/kg daily i.p.): 13.2 days
survival interval (symptom onset to sacrifice) (G93A-SOD1 mice [2]; 3 mg/kg daily i.p.): 36.9 ± 2.8 days
Survival Interval Ratio (SIR) (G93A-SOD1 mice [2]; 0.3 mg/kg): 1.41
Total Life-Span Ratio (TLR) (G93A-SOD1 mice [2]; 0.3 mg/kg): 1.07
Survival Interval Ratio (SIR) (G93A-SOD1 mice [2]; 3.0 mg/kg): 1.56
Total Life-Span Ratio (TLR) (G93A-SOD1 mice [2]; 3.0 mg/kg): 1.11
extension of total life-span versus controls (G93A-SOD1 mice [2]; [9]): 11%
living longer after symptom onset than controls (survival interval increase) (G93A-SOD1 mice [2]; [9]): 56%
survival improvement versus vehicle, females (G93A-SOD1 mice [2]; female G93A mice, 3 mg/kg for AM-1241 and AM630, JTE-907 dose not given): did not live significantly longer
survival improvement versus vehicle, males (G93A-SOD1 mice [2]; male G93A mice, 3 mg/kg for AM-1241 and AM630, JTE-907 dose not given): 19%
effect on survival of G93A-SOD1 mice (G93A-SOD1 mice [2]; treatment initiated at symptom onset): pronounced increase in survival
Ki (CB1 receptors [3]): 580 nM
higher affinity for CB2 relative to CB1 (CB2 receptors): > 80 fold
Ki (CB2 receptors; read-out: affinity for CB2 receptors): 7 nM
improvement in motor function versus vehicle, females (G93A-SOD1 mice [4]; female G93A mice, time to loss of ability to cling 60 seconds): 37%
interval between mean loss of motor function and death, females (G93A-SOD1 mice [4]; female mice, vehicle 19.0 days): 9.0 days
improvement in motor function versus vehicle, males (G93A-SOD1 mice [4]; male G93A mice, time to loss of ability to cling 60 seconds): 81%
loss of motor function, days after observation of symptoms (G93A-SOD1 mice [4]; male mice, vehicle 19.1±3.9 days): 34.5 ± 5.5 days
interval between mean loss of motor function and death, males (G93A-SOD1 mice [4]; male mice, vehicle 20.5 days): 12.8 days
2-AG stimulated G-protein activation remaining on co-incubation with CB2 ligand (cannabinoid receptors; female homogenate): 11.62±2.2 fmole/mg protein
HU-210 stimulated G-protein activation remaining on co-incubation with CB2 ligand (cannabinoid receptors; female homogenates): 19.89±1.5 fmole/mg protein
2-AG stimulated G-protein activation remaining on co-incubation with CB2 ligand (cannabinoid receptors; male homogenate): 9.09±52.1 fmole/mg protein
HU-210 stimulated G-protein activation remaining on co-incubation with CB2 ligand (cannabinoid receptors; male homogenates): 9.73±2.5 fmole/mg protein
effect on G-protein activation (cannabinoid receptors; male spinal cord): relatively small decrease in G-protein activation
G-protein activation by selective agonist (CB1 and CB2 receptors): failed attempts to demonstrate consistent, measurable G-protein activation; also recorded: unable to demonstrate consistent, measurable G-protein activation
water solubility [5]: very poor water solubility
stable dissolution in tested vehicles ([5]; ethanol/water, glycerol, polyethylene glycol, high purity olive oil tested): achieved only with olive oil

CCCCC/C=C\C/C=C\C/C=C\C/C=C\CCCC(=O)NCCCl [ACEA, (all Z)-N-(2-cycloethyl)-5,8,11,14-eicosatetraenamide]
G-protein activation by selective agonist (CB1 and CB2 receptors): failed attempts to demonstrate consistent, measurable G-protein activation; also recorded: unable to demonstrate consistent, measurable G-protein activation

CC1=CC[C@@H]2[C@@H](C1)c1ccc(CC#CCCCNS(C)(=O)=O)cc1OC2(C)C [O-2050, (6aR,1OaR)-3-(1-Methanesulfonylamino-4-hexyn-6-yl)-6a,7,10,10a-tetrahydro-6,6,9-trimethyl-6H-dibenzo[b,d]pyran]
net reduction of HU-210-induced G-protein activation (CB1/CB2 receptors [6]; G93A membranes): 25.9 fmole/mg protein
% blockade of HU-210-induced G-protein activation (CB1/CB2 receptors [6]; [10]): 45%
HU-210 stimulated [35S]GTPγS binding remaining on co-incubation with antagonist (CB1/CB2 receptors [6]; [10]): 31.5±4.4 fmole/mg protein
% blockade of HU-210-induced G-protein activation (CB1/CB2 receptors [6]; G93A spinal cord membranes, HU-210 100 nM, listed as 0-2050): 46%
minimal concentration required to completely block HU-210-mediated G-protein activation by CB1 receptors (CB1 receptors [7]): 3 μM
net reduction of HU-210-induced G-protein activation (CB1/CB2 receptors [8]; WT-OE membranes): 28.3 fmoles/mg protein
% blockade of HU-210-induced G-protein activation (CB1/CB2 receptors [8]; [11]): 92%
HU-210 stimulated [35S]GTPγS binding remaining on co-incubation with antagonist (CB1/CB2 receptors [8]; [11]): 2.5±0.8 fmole/mg protein

CCCCCc1cc(O)c2c(c1)OC(C)(C)c1ccc(C)cc1-2 [cannabinol]
delaying motor impairment and prolonging survival in G93A mice (G93A-SOD1 mice [1]): minimally successful
